Experiments:
SK-OV-3 cells = assay: Growth inhibition of SK-OV-3 cells, MTT assay after 72 hr; type: cell-based, human; settings: conjugates delivered in C-m-HDLs, SEQ ID NO: 35 peptide, solvent lyophilization, FIG. 12A
Description: In this Example, the mole portions of components in the C-m-HDLs prepared by solvent lyophilization were POPC: egg SM: peptide: conjugate 5.6:2.4:2:1. 20 mM stock solutions of POPC and of egg SM were prepared in tert-butyl alcohol: water (8:2 v/v). […] Conjugates 20 and 30 were separately dissolved in tert-butyl alcohol: water (95:5) to a final concentration of 10 mM.
For C-m-HDL preparation, 2.8 mL of 20 mM POPC, 1.2 mL of 20 mM egg SM, 2 mL of 10 mM peptide, 1 mL of 10 mM conjugate, and 0.3 mL acetic acid were combined in a 20 mL glass vial. The combined solution was frozen at ≥−70° C. for ≥1 hr. The frozen vial was placed in the chamber of a lyophilizer set at a shelf temperature of −20° C. A vacuum between 100 to 150 mTorr was applied for ≥20 hr. The shelf temperature was raised to −10° C. and the vacuum was continued for ≥15 hr. The shelf temperature was then raised to 20° C. and the vacuum continued for 24 hr. The dried cake was dissolved in PBS to obtain C-m-HDLs. The uniformity of the C-m-HDLs was evaluated by SEC (Acclaim™ SEC-1000, 300 mm×4.6 mm column, 0.3 mL/min PBS mobile phase, 210 nm and 280 nm UV detection) and by dynamic light scattering. The phospholipid content was established with a commercially available, enzyme-based, colorimetric assay kit. Peptide and conjugate content were established by HPLC.
Two C-m-HDLs were prepared as above, containing either Conjugate 20 or Conjugate 30 were then tested for their growth inhibition activity against SK-OV-3 cells (ATCC). SK-OV-3 cells were grown in McCoy's-5A media supplemented with 10% fetal bovine serum and maintained in a 37° C. incubator under a 5% CO2 atmosphere. To assess growth inhibition, the growth medium of cells grown in 96-well plates was supplemented with various concentrations of C-m-HDL (cmpd 20), C-m-HDL (compd 30) or paclitaxel from a DMSO stock solution. The 96-well plates were incubated for 72 hr. The relative amount of live cells in each of the wells after 72 hr was determined with the MTT assay. […]

[1] = tested on: female Sprague-Dawley rats; assay: Adrenal gland functionality after dosing: plasma corticosterone after ACTH challenge; type: in vivo, rat; settings: paclitaxel in Cremophor EL/ethanol, 4 mg/kg intraperitoneally Days 1, 4, 7; FIG. 10
Description: A paclitaxel stock solution was prepared by dissolving paclitaxel in 1:1 (v/v) Cremophor EL/ethanol (95%) to a final paclitaxel concentration of […] (C-E paclitaxel solution). Next, a paclitaxel solution suitable for dosing was prepared by combining one volume of the C-E paclitaxel solution with 3 volumes of 0.9 weight % NaCl. This solution is designated as “Control”.
C-m-HDL (cmpd 20) was prepared as per Example 12.
Eighteen (18) female Sprague-Dawley rats were randomly assigned to 3 groups of 6 animals each. All animals were lightly anesthetized using isoflurane and dosed intraperitoneally on Days 1, 4, and 7 with paclitaxel at 4 mg/kg in a dose volume of 1.5 mL/kg, or intravenously with C-m-HDL (cmpd 20) at 4 mg/kg or vehicle (saline) via the tail vein using a dose volume of 1.5 mL/kg. Group I received saline, Group 2 received paclitaxel, and Group 3 received C-m-HDL (cmpd 20). On Day 11, rats in each group were lightly anesthetized using isoflurane within their home cage to minimize potential stress responses. Blood (˜200 μL) was collected into K3EDTA tubes prior to ACTH challenge (baseline). Rats were then challenged with a single intraperitoneal injection of ACTH (ACTH 1-24, Sigma-Aldrich A0298-1922) in normal saline at […] in a dose volume of 2 mL/kg. […] Plasma corticosterone content was determined with a commercially available ELISA kit.

CC(=O)O[C@H]1C(=O)[C@@]2(C)[C@H]([C@H](OC(=O)c3ccccc3)[C@]3(O)C[C@H](OC(=O)[C@H](OC(=O)Oc4cc(C)c5c(c4)CC[C@@](C)(CC/C=C(\C)CC/C=C(\C)CCC=C(C)C)O5)[C@@H](NC(=O)c4ccccc4)c4ccccc4)C(C)=C1C3(C)C)[C@]1(OC(C)=O)CO[C@@H]1C[C@@H]2O [Conjugate 20, paclitaxel-delta-tocotrienol conjugate]
SK-OV-3 growth inhibition activity, delta-tocotrienol versus delta-tocopherol anchor (SK-OV-3 cells): equivalent results | SK-OV-3 growth inhibition activity, delta-tocotrienol versus delta-tocopherol anchor (SK-OV-3 cells; listed as paclitaxel-delta-tocotrienol): essentially equivalent

CC(=O)O[C@H]1C(=O)[C@@]2(C)[C@H]([C@H](OC(=O)c3ccccc3)[C@]3(O)C[C@H](OC(=O)[C@H](O)[C@@H](NC(=O)c4ccccc4)c4ccccc4)C(C)=C1C3(C)C)[C@]1(OC(C)=O)CO[C@@H]1C[C@@H]2O [paclitaxel]
adrenal toxicity (plasma corticosterone after ACTH challenge) [1]: lack of adrenal toxicity

Paclitaxel-δ-tocopherol conjugate with a cleavable carbonate bond [No. 82]
SK-OV-3 growth inhibition activity, delta-tocotrienol versus delta-tocopherol anchor (SK-OV-3 cells; listed as paclitaxel-delta-tocopherol): essentially equivalent | SK-OV-3 growth inhibition activity, delta-tocotrienol versus delta-tocopherol anchor (SK-OV-3 cells; listed as δ-tocopherol-paclitaxel): equivalent results

— patent publication US20250345453A1, “CHEMOTHERAPEUTIC MICELLULAR NANOPARTICLES” (Peptinovo Biopharma Inc., priority 2024, published 2025)
